Results published in patent publication US5506239A, “Carbostyril derivative and platelets aggregation inhibitory agent” (Otsuka Pharmaceutical Co., Ltd., priority 1991, dated 1996).

Tests used:
platelets [1] = assay: Platelets aggregation inhibitory activity (method of Born et al.), ADP-induced, human PRP (Pharmacological Test I); format: cell-based, man; conditions: 7.5 μM ADP, 37° C., read-out: IC50 ADP (50% platelets aggregation inhibition)
Protocol: (§1) The platelets aggregation inhibitory activity of each test compound was measured by the method of Born et al. [J. Physiol., London, 162, 67 (1962)], using Platelets Aggregation Tracer manufactured by Nikoh Bioscience Co., Ltd.
(§2) 9 volumes of a blood collected from person was mixed with 1 volume of a 3.8% aqueous sodium citrate solution. Part of the mixture was subjected to centrifugation at 1,100 rpm for 10 minutes to obtain a platelet rich plasma (PRP). The remainder of the mixture was also subjected to centrifugation at 3,000 rpm for 10 minutes to obtain a platelet poor plasma (PPP).
(§3) The number of platelets in the PRP was measured using Coulter Counter manufactured by Coulter Electronics Inc. Then, the PRP was diluted with the PPP so that the number of platelets in the dilution became 300,000, whereby a PRP solution was prepared.
(§4) 200 μl of this PRP solution and 2 ml of a solution containing a test compound at a given concentration were placed in an aggregation measurement cell and heated at 37° C. for 1 minute. Thereto was added 20 μl of adenosine diphosphate (ADP manufactured by Sigma Co.) or a collagen suspension (Collagen Reagent manufactured by Horm, Hormon-Chemie, Gmbh) to induce aggregation of platelets. The resulting mixture in the cell was measured for change of transmittance, after which a platelets aggregation curve was prepared. Incidentaly, the concentration of ADP or collagen was selected so that the final Concentration became 7.5 μM or 20 μg/ml.
(§5) Using the platelets aggregation curve, there was calculated a maximum aggregation rate (MAR) of platelets using the followoing formula: […]
(§6) wherein a represents a transmittance of the PRP obtained in the same manner; c represents a transmittance of the PPP obtained in the same manner; and b represents a transmittance at the maximum change, of the PRP solution containng the test compound and the aggregation inducer.
(§7) A MAR was also calculated as above, for the control containing no test compound.
(§8) Using the above two MARs, there were calculated platelets aggregation inhibitions (%) of each test compound at various concentrations using the following formula.
(§9) Inhibition=[1-(MAR of PRP solution containing test compound)/(MAR of PRP
(§10) solution containing no test compound)]×100
(§11) Using the above obtained platelets aggregation inhibitions (%) of each test compound at various concentrations, there was calculated a concentration (IC50) of each test compound for 50% platelets aggregation inhibition.

platelets [2] = assay: Platelets aggregation inhibitory activity (method of Born et al.), collagen-induced, human PRP (Pharmacological Test I); format: cell-based, man; conditions: 20 μg/ml collagen, 37° C., read-out: IC50 Collagen (50% platelets aggregation inhibition)
Protocol: as §1, §2, §3, §4, §5, §6, §7, §8, §9, §10, §11

platelets [3] = assay: Inhibition of collagen-induced platelets adhesion, washed platelets (Pharmacological Test III); format: cell-based, man; conditions: Platelet, 50 μg/ml collagen, human washed platelets, read-out: Inhibition (%) of collagen-induced platelets adherence
Protocol: A blood was collected from a healthy person with normal platelets function by addition of 0.1% disodium ethylenediaminetetraacetate (EDTA.4Na) and immediately subjected to separation of a platelet rich plasma (PRP). The PRP was washed twice with a Tyrode's buffer solution (50mM TRIS, 0.1% EDTA, Ca (-), Mg (-), 0.14% BSA added, pH=7.4), and suspended in the buffer solution so that the number of platelets in the resulting suspension became 300, 000/ml, to obtain a platelets suspension (EDTA-WP). 4 mg of Type I manufactured by Sigma Co., derived from a bovine skin was dissolved in 0.25 ml of acetic acid (83.5 mM); 8 ml of distilled water was added thereto; an ultrasonic wave was applied to the mixture at 4° C. for 2 minutes; 5 ml of the supernatant liquid was separated as a collagen solution. Each test compound was dissolved in dimethylformamide (DMF) so as to give a concentration of at least […] when possible, to prepare a test compound solution. The change in turbidity of platelets suspension was recorded as a change in transmitted light emitted from a glass cell containing the suspension, using a platelets aggregation tracer manufactured by Nikoh Bioscience K.K., generally used in the test of platelets aggregation function, whereby the adherence of platelets was measured. Incidentally, in recoridng the change in transmitted light, the sensitivity of the recorder was 5 times as high as that used generally. 200 μl of the EDTA-WP was placed in a glass cell exclusively used for the above platelets aggregation tester. Further, 1 μl of the test compound solution was added. The mixture was incubated at room temperature for 5 minutes. Then, the cell was set in the platelets aggregation tracer and was allowed to stand for 1 minute until the temperature became 37° C. Thereafter, about 20 μl (50 μg/ml) of the collagen solution was added, and the adherence of platelets were measured.
The inhibitions (%) of collagen-induced platelets adhesion by each test compound at various concentrations were calculated using the following formula.
Inhibition (%)=[1-(platelets adherence when test compound added)/
(platelets adherence when no test compound added)]×100

mongrel dogs = conditions: dog, in vivo, 300 mg/kg
Protocol: The heart rate-increasing activity and blood pressure hypotensive activity of each test compound were measured by the following method, using mongrel dogs each weighing 10-20 kg. That is, said dogs were anesthesized by intravenous injection of pentobarbital sodium, then fixed at the back, and tested under artificial respiration. The blood pressures of the dogs were measured by a blood pressure measuring transducer (P23×L manufactured by Gould Statham Instruments, Inc.) via cannula inserted into the femoral artery. The heart rates of the dogs were measured using the pulse wave of the blood pressure of each dog, via a tachometer. The signals of these testng apparatuses were recorded on a thermal pen-type recorder (Recti-Horize 8K manufactured by Nippon Denki-San-ei Sha).
Some of the compounds obtained in the above Examples were used as test compounds. […] Then, the heart rate of each dog was measured according to the above method and a maximum change in heart rate was calculated.

Compound	IC50 (platelets [1]; Homo sapiens, Platelet) [µM]	IC50 (platelets [2]; Homo sapiens, Platelet) [µM]	further results
O=C(CN(CCCCCOc1ccc2[nH]c(=O)ccc2c1)Cc1ccccc1)N1CCC(O)CC1 [Example 20]	2	1.2	inhibition at 10 µM (platelets [3]): 49%
O=c1ccc2cc(OCCCCN(CCN3CCC(O)CC3)CC3CCCCCCC3)ccc2[nH]1 [Example 16]			IC50 (platelets [1]): 6.3 µM; IC50 (platelets [2]): 7.4 µM; inhibition at 10 µM (platelets [3]): 48%
CN(C)C(=O)[C@@H]1CCCN1CCN(CCCCCOc1ccc2[nH]c(=O)ccc2c1)Cc1ccccc1 [Example 53]	11	13	inhibition at 30 µM (platelets [3]): 35%
O=c1ccc2cc(OCCCCN(CCN3CCC(O)CC3)S(=O)(=O)CC3CCCCC3)ccc2[nH]1 [Example 130]	14	13	inhibition at 10 µM (platelets [3]): 43%
O=c1ccc2cc(OCCCCN(Cc3ccccc3)S(=O)(=O)CCN3CCC(O)CC3)ccc2[nH]1 [Example 119]	20	20	inhibition at 10 µM (platelets [3]): 40%
O=c1ccc2cc(OCCCS(=O)(=O)N(CCN3CCC(O)CC3)C3CCCCC3)ccc2[nH]1 [Example 86]	8	12	inhibition at 10 µM (platelets [3]): 47%
O=c1ccc2cc(OCCCS(=O)(=O)N(CC(O)CO)CC3CCCCC3)ccc2[nH]1 (stereo not drawn) [Example 109]	4.9	6.3	Maximum change in heart rate (mongrel dogs): 16 beats/minute
O=C(CN(CCCCOc1ccc2[nH]c(=O)ccc2c1)CC1CCCCCCC1)N1CCC(O)CC1 [Example 19]	6.1	5.3	Maximum change in heart rate (mongrel dogs): 24 beats/minute
O=c1ccc2cc(OCCCCN(CCN3CCC(O)CC3)CC3CCCCC3)ccc2[nH]1 [Example 23]	8	9.5	Maximum change in heart rate (mongrel dogs): -2 beats/minute
O=c1ccc2cc(OCCCCN(CCN3CCC(O)CC3)c3ccccc3)ccc2[nH]1 [Example 27]	6.7	7.7	Maximum change in heart rate (mongrel dogs): 7 beats/minute; inhibition at 30 µM (platelets [3]): 40%
COC(=O)[C@@H]1C[C@@H](O)CN1CCCCOc1ccc2[nH]c(=O)ccc2c1 [Example 73]	25	6.9	inhibition at 100 µM (platelets [3]): 36%
O=c1ccc2cc(OCCCCN(CC(O)CO)CC3CCCCC3)ccc2[nH]1 (stereo not drawn) [Example 68]	15	7.1	Maximum change in heart rate (mongrel dogs): 30 beats/minute
CCN(CC)CCN(CCCCOc1ccc2[nH]c(=O)ccc2c1)CC1CCCCCC1 [Example 62]	18	17	Maximum change in heart rate (mongrel dogs): 2 beats/minute; inhibition at 100 µM (platelets [3]): 54%
O=C(O)CN(CCCCOc1ccc2[nH]c(=O)ccc2c1)CC1CCCCCCC1 [Example 64]	9	10	inhibition at 30 µM (platelets [3]): 31%
O=c1ccc2cc(OCCCCN(CCN3CCC(O)CC3)CC3CCCCCCC3)ccc2[nH]1 [Example 15]	10		Maximum change in heart rate (mongrel dogs): 1 beats/minute; IC50 (platelets [2]): 3.6 µM
O=c1ccc2cc(OCCCS(=O)(=O)N(CCN3CCOCC3)CC3CCCCCCC3)ccc2[nH]1 [Example 98]	9.1	12	

Compound	IC50 (platelets [1]; Homo sapiens, Platelet) [µM]	IC50 (platelets [2]; Homo sapiens, Platelet) [µM]	further results
CCN(CC)CCN(CC1CCCCCC1)S(=O)(=O)CCCOc1ccc2[nH]c(=O)ccc2c1 [Example 110]	4.7	8.3	
CN(C)C1CCN(CCN(CCCCOc2ccc3[nH]c(=O)ccc3c2)CC2CCCCCCC2)CC1 [Example 46]	20	20	
O=c1ccc2cc(OCCCCN(CCN3CCC[C@H]3CO)CC3CCCCCCC3)ccc2[nH]1 [Example 49]	6.9	22	
O=c1ccc2cc(OCCCS(=O)(=O)N(CCN3CCC4(CC3)OCCO4)CC3CCCCCCC3)ccc2[nH]1 [Example 101]	2.9	3.2	
O=c1ccc2cc(OCCCCN(Cc3ccccc3)S(=O)(=O)CCn3cncn3)ccc2[nH]1 [Example 121]			inhibition at 30 µM (platelets [3]): 38%
O=C(NCCCOc1ccc2[nH]c(=O)ccc2c1)N(CCN1CCC(O)CC1)CC1CCCCCCC1 [Example 131]	2.4	1.3	
O=C(NCC1CCCCC1)[C@@H]1C[C@@H](O)CN1CCCCOc1ccc2[nH]c(=O)ccc2c1 [Example 75]	9.1	13	inhibition at 300 µM (platelets [3]; dose 300 μM): 57%
O=c1ccc2cc(OCCCCN(Cc3ccccc3)S(=O)(=O)CCCn3cncn3)ccc2[nH]1 [Example 123]	17	9.5	inhibition at 10 µM (platelets [3]): 39%
CCN1C[C@H](O)C[C@H]1CN(CCCCOc1ccc2[nH]c(=O)ccc2c1)CC1CCCCCCC1 [Example 71]	18	7.4	
CN(C1CCCCC1)S(=O)(=O)CCCOc1ccc2[nH]c(=O)ccc2c1 [Example 76]			inhibition at 30 µM (platelets [3]): 35%
O=c1ccc2cc(OCCCCCS(=O)(=O)N(CCN3CCC(O)CC3)CC3CCCCCCC3)ccc2[nH]1 [Example 80]	13	15	
O=c1ccc2cc(OCCCCCN(CCN3CCC(O)CC3)Cc3ccc(Cl)c(Cl)c3)ccc2[nH]1 [Example 36]	11	20	
O=c1ccc2cc(OCCCCCN(CCN(CCO)CCO)Cc3ccccc3)ccc2[nH]1 [Example 58]	3.8	4.8	
COc1ccc(CN(CCCCCOc2ccc3[nH]c(=O)ccc3c2)CCN2CCC(O)CC2)cc1OC [Example 35]	11	11	
O=c1ccc2cc(OCCCS(=O)(=O)N(CCN3CCC(O)CC3)Cc3ccccc3)ccc2[nH]1 [Example 83]	11	4.3	Maximum change in heart rate (mongrel dogs): 9 beats/minute
CC(=O)NCCN(CCCCOc1ccc2[nH]c(=O)ccc2c1)CC1CCCCCCC1 [Example 61]	4.9	6.3	Maximum change in heart rate (mongrel dogs): 17 beats/minute; inhibition at 30 µM (platelets [3]): 35%
